Assay results: patent US20260240844A1, “INHIBITORS OF CHD1L AND USES THEREOF” (The Regents of the University of Colorado, a body corporate, priority 2023, published 2026)
Like-named read-outs stand apart in the source and are kept apart here.

Key:
AIF in SUM149PT cells = test: AIF immunofluorescence in SUM149PT (SUM149) cells; format: cell-based
Excerpt: CHD1Li-mediated PAR translocation to the cytoplasm activates PARthanatos as a cell death mechanism. Parthanatos is a form a programmed cell death different from apoptosis and known to be mediated by PARP1 overactivation. The unique events occurring during parthanatos are: PARP1 rapid activation, accumulation of PAR and nuclear translocation of apoptosis inducing factor (AIF). Without being bound by any particular theory, accumulation of PAR in the cytoplasm caused by CHD1Li can also mediate parthanatos. To better understand the link between PAR translocation to the cytoplasm and cell death, immunofluorescence to measure the activation of caspase-3 and the subcellular localization of AIF after treatment with SOC drugs and Compound 6 in SUM49PT cells was used. […] Without being bound by any particular theory, this might be caused by the mitochondrial outer membrane permeabilization, which triggers release of mitochondrial proteins like AIF or cytochrome c, activating caspase-3 by its cleavage and leading to apoptosis. […] Moreover, when combining CHD1L inhibition with SOC drugs, the cell death mechanism shifts from apoptosis to parthanatos, evidenced by a significant increase in AIF nuclear translocation and decrease in activation of caspase-3 (FIG. 25D-E).
(§1) The ability of Compounds 12, 15 and 16 to localize AIF was tested in SUM149 (breast cancer) and MDA-MB-231 (TNBC) cell lines. A comparison of the relative distribution of AIF in nuclei (a) versus cytoplasm (b) in SUM149 cells and nuclei (c) versus cytoplasm (d) in MDA-MB-231 cells in the presence of 4 μM Compounds 12, 15 and 16 are shown in FIG. 28. […] Similarly, AIF concentration in the cytoplasm of MDA-MB-231 cells decreased by about 0.5 after administration with Compound 15. After treatment with Compound 16, the relative concentration of AIF in the nuclei of SUM149 cells increased by about 0.5-fold, and the concentration of AIF in the cytoplasm decreased by about 0.4-fold. In MDA-MB-231 cells, the relative concentration of AIF in the cytoplasm decreased by about 0.5-fold, while the concentration of AIF increased in the nuclei by about 0.1-fold.

AIF in MDA-MB-231 cells = test: AIF localization in MDA-MB-231 cells; format: cell-based; conditions: 4 μM
Method: as §1

MiaPaca2 cells = test: MiaPaca2 cell viability, combination with chemotherapy; format: cell-based; conditions: MiaPaca2 cells
Excerpt: The cell viability assays and Bliss synergy analyses are as described above in Examples 1-9 and 11-12.

SUM149PT tumor organoids = test: Tumor organoid cytotoxicity (CellTiter Glo 3D), SUM149PT; format: cell-based; conditions: for calculated mean synergy scores: MDA-MB-231 and SUM149PT; for Mean Synergy Score / IC50: SUM149PT; for IC50: Homo sapiens, read-out: IC50 docetaxel
Method: Tumor organoid culture—Cell lines were cultured as tumor organoids by seeding 2,000 to 5,000 cells/well into uncoated 96 well U-bottom Ultra Low Attachment Microplates (Corning) using their corresponding medium.
Luminescence was recorded using the EnVision plate reader (PerkinElmer) and values normalized to the controls using GraphPad Prism.

[1] = test system: MDA-MB-231 tumor organoids; test: Tumor organoid cytotoxicity, MDA-MB-231; format: cell-based; conditions: MDA-MB-231
Method: Tumor organoid culture—Cell lines were cultured as tumor organoids by seeding 2,000 to 5,000 cells/well into uncoated 96 well U-bottom Ultra Low Attachment Microplates (Corning) using their corresponding medium. Cell aggregation was then promoted by centrifugation of the plates for 15 min at 1,000 rpm followed by the addition of Matrigel (Corning) to a 2-5% final concentration. Tumor organoids were maintained under standard cell culture conditions for 72 h prior to drug treatment.
Organoids were then transferred to a white solid bottom 96 well plate and incubated with an equal volume of CellTiter Glo 3D reagent (Promega) for 45 min on a shaker at 400 rpm. Luminescence was recorded using the EnVision plate reader (PerkinElmer) and values normalized to the controls using GraphPad Prism.

Colo678 cells = test: Colo678 cell viability, combination with chemotherapy; format: cell-based; conditions: Colo678 cells
PAR in SUM149PT cells = test: PAR immunofluorescence (nuclear / cytoplasmic PAR); format: cell-based
Excerpt: Inhibition of CHD1L promotes PAR translocation to the cytoplasm. The main role of PARP1 during the DDR is to detect and signal the recruitment of repair machinery to the sites of DNA damage. For that, PARP1/2 catalyze PARylation, which is a pivotal […] protein modification, consisting of the addition of ADP-ribose units to the carboxyl group of acidic residues such as glutamate or aspartate on target proteins by using NAD^+ as substrate. CHD1L is one of the proteins that requires binding to these PAR chains for its activation and subsequent chromatin remodeling. Using immunofluorescence of PAR, the effect of PARPi and CHD1Li on PARylation in SUM149PT cells was investigated. […] In addition, the effect of doxorubicin on nuclear PARylation was reverted by CHD1L inhibition, causing an increase of PAR in the cytoplasm (FIG. 25A-C).

CHD1L = molecular target: T1, CHD1L (Homo sapiens, UniProt Q86WJ1); test: CHD1L trapping (in situ subcellular fractionation, immunofluorescence); format: cell-based; conditions: single agent; SUM149PT + 0.01% MMS 4 h; BC and CRC cells
T1 sequence (Q86WJ1 1-897): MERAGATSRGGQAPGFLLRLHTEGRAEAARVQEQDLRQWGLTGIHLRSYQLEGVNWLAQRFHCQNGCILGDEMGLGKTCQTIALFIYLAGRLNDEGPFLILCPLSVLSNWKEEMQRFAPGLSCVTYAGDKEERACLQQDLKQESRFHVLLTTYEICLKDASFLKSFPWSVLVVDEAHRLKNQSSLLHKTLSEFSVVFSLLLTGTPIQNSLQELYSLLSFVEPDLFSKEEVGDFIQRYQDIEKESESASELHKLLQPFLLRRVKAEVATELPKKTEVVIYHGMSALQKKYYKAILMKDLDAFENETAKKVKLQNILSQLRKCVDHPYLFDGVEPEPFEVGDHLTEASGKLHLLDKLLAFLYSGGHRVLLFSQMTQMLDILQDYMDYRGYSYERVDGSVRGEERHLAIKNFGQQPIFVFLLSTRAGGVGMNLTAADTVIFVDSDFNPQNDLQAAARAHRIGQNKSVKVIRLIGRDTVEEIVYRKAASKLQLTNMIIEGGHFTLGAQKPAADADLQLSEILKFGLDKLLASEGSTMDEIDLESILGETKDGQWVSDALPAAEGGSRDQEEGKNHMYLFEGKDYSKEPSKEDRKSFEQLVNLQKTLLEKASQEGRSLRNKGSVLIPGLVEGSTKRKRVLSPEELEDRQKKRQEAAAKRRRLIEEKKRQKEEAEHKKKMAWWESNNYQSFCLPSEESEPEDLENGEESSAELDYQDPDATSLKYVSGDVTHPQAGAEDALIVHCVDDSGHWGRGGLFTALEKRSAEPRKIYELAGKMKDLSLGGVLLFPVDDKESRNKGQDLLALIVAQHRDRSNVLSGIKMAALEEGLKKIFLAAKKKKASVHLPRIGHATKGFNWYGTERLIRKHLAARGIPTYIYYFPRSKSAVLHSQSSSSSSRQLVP
Excerpt: Other studies on the role of CHD1L used cell lines with knockdown or knockouts of the gene encoding for CHD1L and have never been able to study the result of its enzymatic inhibition.

HCT116 Parental cells = test: HCT116 Parental cell viability, combination with chemotherapy; format: cell-based; conditions: HCT116 cells
SW620 Parental cells = test: SW620 Parental cell viability, combination with chemotherapy; format: cell-based; conditions: SW620 cells
SW948 tumor organoids = test: cells; conditions: SW948 tumor organoids; combined with Compound 6
Method: ATM is an important protein involved in the initial stages of the DNA damage response. […] ATM mutations are important markers being developed to identify metastatic CRC (mCRC) patients that may be sensitive to DNA damaging chemotherapy.
Synergy was assessed using the Bliss model.

[2] = Compound 13 combined with Olaparib
[3] = Compound 13 combined with doxorubicin
[4] = SUM149PT tumor organoids, combined with Compound 6
[5] = SUM149PT cells, single agent, 18 h

Cc1cc(Nc2ccc(NC(=O)Cc3ccc(Br)s3)cc2)nc(N2CCCC2)n1 [Compound 15, 2-(5-bromothiophen-2-yl)-N-(4-((6-methyl-2-(pyrrolidin-1-yl)pyrimidin-4-yl)amino)phenyl)acetamide]
decrease in AIF in the cytoplasm (AIF in SUM149PT cells; SUM149 cells, 4 μM): about 0.5 fold | increase in AIF in the nucleus (AIF in SUM149PT cells; SUM149 cells, 4 μM): about 0.5 fold | decrease in AIF in the cytoplasm (AIF in MDA-MB-231 cells): about 0.5 fold

Cc1cc(Nc2ccc(NC(=O)Cc3c[nH]c4cc(Cl)ccc34)cc2)nc(N2CCCC2)n1 [Compound 7, 2-(6-chloro-1H-indol-3-yl)-N-(4-((6-methyl-2-(pyrrolidin-1-yl)pyrimidin-4-yl)amino)phenyl)acetamide]
calculated mean synergy score (MiaPaca2 cells; combined with 5-FU): about 25 | calculated mean synergy score (MiaPaca2 cells; combined with SN-38): about 24.5

Cc1cc(Nc2ccc(NC(=O)c3cc(Br)cs3)cc2)nc(N2CCCC2)n1 [Compound 13, 4-bromo-N-(4-((6-methyl-2-(pyrrolidin-1-yl)pyrimidin-4-yl)amino)phenyl)thiophene-2-carboxamide]
calculated mean synergy scores (SUM149PT tumor organoids; all combinations with 5-FU or doxorubicin): at least 20 | calculated mean synergy scores (SUM149PT tumor organoids; all combinations with Olaparib): at least 40 | Mean Synergy Score (SUM149PT tumor organoids; Compound 13 combined with 5-FU): 23.62 | Mean Synergy Score (SUM149PT tumor organoids; [2]): 69.46 | Mean Synergy Score (SUM149PT tumor organoids; [3]): 42.74 | Mean Synergy Score ([1]; Compound 13 combined with 5-FU): 23.62 | Mean Synergy Score [1, 2]: 40.44 | Mean Synergy Score [1, 3]: 23.62 | calculated mean synergy score (Colo678 cells; 72 h, combined with SN-38): about 41 | calculated mean synergy score (Colo678 cells; combined with 5-FU): about 12 | calculated mean synergy score (MiaPaca2 cells; combined with 5-FU): about 57 | calculated mean synergy score (MiaPaca2 cells; combined with SN-38): about 18

CCc1cc2ncc(CN3CCN(c4ccc(C(=O)NC)nc4)CC3)cc2[nH]c1=O [AZD5305]
improvement of IC50 potency (SUM149PT tumor organoids; [4]): 2.7 fold | nuclear PAR (PARylation) (PAR in SUM149PT cells; SUM149PT cells, single agent, 4 h): inhibition of nuclear PARylation | cytoplasmic AIF (AIF in SUM149PT cells; [5]): increase in the AIF intensity in the cytoplasm | nuclear AIF (AIF in SUM149PT cells; [5]): no translocation of this protein to the nucleus | CHD1L trapping onto chromatin/nucleosomes (CHD1L): did not show CHD1L trapping

CC(=O)O[C@@]12CO[C@@H]1C[C@H](O)[C@@]1(C)C(=O)[C@H](O)C3=C(C)[C@@H](OC(=O)[C@H](O)[C@@H](NC(=O)OC(C)(C)C)c4ccccc4)C[C@@](O)([C@@H](OC(=O)c4ccccc4)[C@H]21)C3(C)C [docetaxel]
IC50 (SUM149PT tumor organoids; [4]): 0.5 µM | IC50 (SUM149PT tumor organoids; SUM149PT tumor organoids, docetaxel alone): 55 µM | increase in potency of the chemotherapy (SUM149PT tumor organoids; SUM149PT BRCA1 mutant tumor organoids, + 1.9 μM Compound 6): 110 fold

Cc1cc(Nc2ccc(NC(=O)/C=C/c3cc(Br)cs3)cc2)nc(N2CCCC2)n1 [Compound 11, (E)-3-(4-bromothiophen-2-yl)-N-(4-((6-methyl-2-(pyrrolidin-1-yl)pyrimidin-4-yl)amino)phenyl)acrylamide]
calculated mean synergy score (HCT116 Parental cells; 72 h, combined with SN-38): about 14 | calculated mean synergy score (HCT116 Parental cells; combined with 5-FU): about 8 | calculated mean synergy score (SW620 Parental cells; 72 h, combined with SN-38): about 24 | calculated mean synergy score (SW620 Parental cells; combined with 5-FU): about 43

PDD00017273
nuclear PAR under CHD1L inhibition (PAR in SUM149PT cells; cells pre-treated 2 hours with 1 μM PARG inhibitor before CHD1Li): kept the levels of nuclear PAR similar to control cells

O=C(O)C(=O)O.[NH-][C@@H]1CCCC[C@H]1[NH-].[Pt+2] [oxaliplatin]
increase in potency of the chemotherapy (SW948 tumor organoids): 20 fold

Cc1cc(Nc2ccc(NC(=O)Cc3cc(Cl)nc4ccccc34)cc2)nc(N2CCCC2)n1 [Compound 8, 2-(2-chloroquinolin-4-yl)-N-(4-((6-methyl-2-(pyrrolidin-1-yl)pyrimidin-4-yl)amino)phenyl)acetamide]
calculated mean synergy score (MiaPaca2 cells; combined with 5-FU): about 29.5 | calculated mean synergy score (MiaPaca2 cells; combined with SN-38): about 26
